Data set [1] has as its system strain TA98. The data set is described as follows: AMES test (reverse mutagenicity test), strain TA98, with and without S-9. The class given is cell-based. As to conditions: TA98, with and without S9, 20 to 5000 μg/plate. On the procedure:
(§1) Regarding specimen solutions containing the trisazo compounds (dyes) of the present invention obtained in Examples 1 to 9 and dyes of Comparative Examples 1 to 3, respectively, the total number of the mutant colony was determined using the strain TA98. When the resulting magnification is not more than 2, it is evaluated as "negative". On the other hand, when the resulting magnification is not less than 2, it is evaluated as "positive".
(§2) In Table 1, the modification in case that no drug-metabolizing active enzyme S-9 is added is shown in the column "-" and the modification in case that a drug-metabolizing active enzyme S-9 is added is shown in the column "+".

Assay in data set [2]: as above
The class given is cell-based. The note with it: read-out: magnification of the total number of the mutant colony to the control. On the procedure: as §1, §2

The nature of data set [3]: Solubility of dye (Na salt) in water. The format is physicochemical. The procedure:
Evaluation Method of Solubility of Dye
A Na salt (2 g) of the resulting dye was dissolved in water (10 g), and the dye solution was filtered and concentrated/dried to determine a solubility (g of dye/100 g of water) of the dye.

Setting [4] is: s9, TA98, with S9, 313 μg/plate.
Where [5] appears, read: s9, TA98, with S9, 1250 μg/plate.
[6] abbreviates: s9, TA98, with S9, 5000 μg/plate.
Where [7] appears, read: s9, TA98, without S9, 20 μg/plate.
The mark [8] stands for this setting: s9, TA98, without S9, 78 μg/plate.
Setting [9] is: s9, TA98, without S9, 313 μg/plate.
[10] abbreviates: s9, TA98, without S9, 1250 μg/plate.
Setting [11] is: s9, TA98, without S9, 5000 μg/plate.

Read-outs that look alike come from different tables or passages of the source.

Consider eight compounds from US5486601A, “Trisazo dye, and aqueous ink composition containing the same” (priority 1993, dated 1996).

In the case of `Cc1ccc(N=Nc2c(S(=O)(=O)O)cc3cc(S(=O)(=O)O)c(N=Nc4ccc(C5(c6ccc(N=Nc7ccc(N)cc7O)cc6)CCCCC5)cc4)c(N)c3c2O)cc1` [Example 6], the “AMES Evaluation” value in data set [1] is listed as “Negative (When the resulting magnification is not more than 2, it is evaluated as "negative")”. The fold induction in data set [2] (s9, TA98, with S9, 20 μg/plate) amounted to 1.38; in data set [2] (s9, TA98, with S9, 78 μg/plate) it was 1.43; in data set [2] (setting [4]), 0.95; in data set [2] (setting [5]), 0.68; in data set [2] (setting [6]), 0.65; in data set [2] (setting [7]) it was 1.19. Also, the fold induction in data set [2] (setting [8]) came out at 1.22; in data set [2] (setting [9]) it was 1.48; in data set [2] (setting [10]), 1.3; in data set [2] (setting [11]), 1.15. Besides, in data set [3], the “Solubility Dye(g)/water (100 g)” value is listed as 15 g of dye/100 g of water. The “Solubility Evaluation” value in data set [3] is “.circleincircle. (solubility is not less than 15)”.

As for `CCC(C)c1ccc(N=Nc2c(S(=O)(=O)O)cc3cc(S(=O)(=O)O)c(N=Nc4ccc(C5(c6ccc(N=Nc7ccc(N)cc7O)cc6)CCCCC5)cc4)c(N)c3c2O)cc1` (centres unmarked) [Example 3], in data set [1], the “AMES Evaluation” value was “Negative (When the resulting magnification is not more than 2, it is evaluated as "negative")”. Also, the fold induction was 0.81 in data set [2] (s9, TA98, with S9, 20 μg/plate); 1.31 in data set [2] (s9, TA98, with S9, 78 μg/plate); 1 in data set [2] (setting [4]); 0.56 in data set [2] (setting [5]); 0.69 in data set [2] (setting [6]); 0.81 in data set [2] (setting [7]). In addition, the fold induction is 0.5 in data set [2] (setting [8]), 0.5 in data set [2] (setting [9]), 0.5 in data set [2] (setting [10]) and 0.69 in data set [2] (setting [11]). For the same compound, the “Solubility Dye(g)/water (100 g)” value in data set [3] is 12 g of dye/100 g of water. Besides, the “Solubility Evaluation” value in data set [3] was “.smallcircle. (solubility is within a range from 10 to 15)”.

Regarding `CCCCc1ccc(N=Nc2c(S(=O)(=O)O)cc3cc(S(=O)(=O)O)c(N=Nc4ccc(C5(c6ccc(N=Nc7ccc(O)cc7O)cc6)CCCCC5)cc4)c(N)c3c2O)cc1` [Example 2], the “AMES Evaluation” value in data set [1] was “Negative (When the resulting magnification is not more than 2, it is evaluated as "negative")”. Also, the fold induction in data set [2] (s9, TA98, with S9, 20 μg/plate) came to 1.09; in data set [2] (s9, TA98, with S9, 78 μg/plate) it was 1.09; in data set [2] (setting [4]), 0.55; in data set [2] (setting [5]) it was 0.55; in data set [2] (setting [6]) it was 0.42; in data set [2] (setting [7]), 0.78. For the same compound, the fold induction in data set [2] (setting [8]) is 0.7; in data set [2] (setting [9]) it was 0.61; in data set [2] (setting [10]), 0.39; in data set [2] (setting [11]) it was 0.3. For the same compound, the “Solubility Dye(g)/water (100 g)” value in data set [3] is on record as 15 g of dye/100 g of water. In addition, in data set [3], the “Solubility Evaluation” value is “.circleincircle. (solubility is not less than 15)”.

For `CCCCc1ccc(N=Nc2c(S(=O)(=O)O)cc3cc(S(=O)(=O)O)c(N=Nc4ccc(C5(c6ccc(N=Nc7ccc(N)cc7O)cc6)CCCCC5)cc4)c(N)c3c2O)cc1` [Example 1], the “AMES Evaluation” value in data set [1] is reported as “Negative (When the resulting magnification is not more than 2, it is evaluated as "negative")”. Also, the fold induction worked out at 1.21 in data set [2] (s9, TA98, with S9, 20 μg/plate); 1.03 in data set [2] (s9, TA98, with S9, 78 μg/plate); 0.9 in data set [2] (setting [4]); 0.63 in data set [2] (setting [5]); 0.69 in data set [2] (setting [6]); 0.91 in data set [2] (setting [7]). Also, the fold induction came to 0.86 in data set [2] (setting [8]), 0.91 in data set [2] (setting [9]), 0.95 in data set [2] (setting [10]) and 0.5 in data set [2] (setting [11]). Moreover, the “Solubility Dye(g)/water (100 g)” value in data set [3] is recorded as 12 g of dye/100 g of water. Besides, the “Solubility Evaluation” value in data set [3] is “.smallcircle. (solubility is within a range from 10 to 15)”.

On to `CCCCc1ccc(N=Nc2c(S(=O)(=O)O)cc3cc(S(=O)(=O)O)c(N=Nc4ccc(C5(c6ccc(N=Nc7ccc(N(C)C)cc7C(=O)O)cc6)CCCCC5)cc4)c(N)c3c2O)cc1` [Example 8], for which the “AMES Evaluation” value in data set [1] is “Negative (When the resulting magnification is not more than 2, it is evaluated as "negative")”. Besides, the fold induction worked out at 1.13 in data set [2] (s9, TA98, with S9, 20 μg/plate); 0.94 in data set [2] (s9, TA98, with S9, 78 μg/plate); 1.06 in data set [2] (setting [4]); 0.53 in data set [2] (setting [5]); 0.59 in data set [2] (setting [6]); 0.76 in data set [2] (setting [7]). For the same compound, the fold induction in data set [2] (setting [8]) is 0.86; in data set [2] (setting [9]), 0.86; in data set [2] (setting [10]), 0.76; in data set [2] (setting [11]), 0.71. Moreover, the “Solubility Dye(g)/water (100 g)” value in data set [3] is listed as 15 g of dye/100 g of water. Further, the “Solubility Evaluation” value in data set [3] is given as “.circleincircle. (solubility is not less than 15)”.

With `CC(C)c1ccc(N=Nc2c(S(=O)(=O)O)cc3cc(S(=O)(=O)O)c(N=Nc4ccc(C5(c6ccc(N=Nc7ccc(N)cc7O)cc6)CCCCC5)cc4)c(N)c3c2O)cc1` [Example 5], the “AMES Evaluation” value in data set [1] is given as “Negative (When the resulting magnification is not more than 2, it is evaluated as "negative")”. Moreover, the fold induction is 1.77 in data set [2] (s9, TA98, with S9, 20 μg/plate); 1.27 in data set [2] (s9, TA98, with S9, 78 μg/plate); 1.41 in data set [2] (setting [4]); 1.45 in data set [2] (setting [5]); 1.05 in data set [2] (setting [6]); 0.9 in data set [2] (setting [7]). In addition, the fold induction in data set [2] (setting [8]) is 0.76; in data set [2] (setting [9]), 1.07; in data set [2] (setting [10]), 0.83; in data set [2] (setting [11]), 0.48. For the same compound, in data set [3], the “Solubility Dye(g)/water (100 g)” value is 13 g of dye/100 g of water. In data set [3], the “Solubility Evaluation” value was “.smallcircle. (solubility is within a range from 10 to 15)”.

Take `Nc1ccc(N=Nc2ccc(C3(c4ccc(N=Nc5c(S(=O)(=O)O)cc6cc(S(=O)(=O)O)c(N=Nc7ccccc7)c(O)c6c5N)cc4)CCCCC3)cc2)c(O)c1` [Example 4]: the “AMES Evaluation” value in data set [1] is recorded as “Negative (When the resulting magnification is not more than 2, it is evaluated as "negative")”. For the same compound, the fold induction in data set [2] (s9, TA98, with S9, 20 μg/plate) was found to be 1.44; in data set [2] (s9, TA98, with S9, 78 μg/plate), 1.4; in data set [2] (setting [4]), 1.08; in data set [2] (setting [5]), 1.16; in data set [2] (setting [6]), 0.96; in data set [2] (setting [7]), 1. For the same compound, the fold induction amounted to 0.93 in data set [2] (setting [8]), 1.07 in data set [2] (setting [9]), 0.87 in data set [2] (setting [10]) and 0.93 in data set [2] (setting [11]). In addition, the “Solubility Dye(g)/water (100 g)” value in data set [3] is recorded as 15 g of dye/100 g of water. In data set [3], the “Solubility Evaluation” value is given as “.circleincircle. (solubility is not less than 15)”.

As to `CCCCc1ccc(N=Nc2c(S(=O)(=O)O)cc3cc(S(=O)(=O)O)c(N=Nc4ccc(C5(c6ccc(N=Nc7ccc(N(C)C)cc7O)cc6)CCCCC5)cc4)c(N)c3c2O)cc1` [Example 9], the “AMES Evaluation” value in data set [1] is recorded as “Negative (When the resulting magnification is not more than 2, it is evaluated as "negative")”. Besides, the fold induction in data set [2] (s9, TA98, with S9, 20 μg/plate) was 1.15; in data set [2] (s9, TA98, with S9, 78 μg/plate), 1.37; in data set [2] (setting [4]), 0.77; in data set [2] (setting [5]), 0.41; in data set [2] (setting [6]), 0.59; in data set [2] (setting [7]), 0.77. Moreover, the fold induction is 0.73 in data set [2] (setting [8]), 0.58 in data set [2] (setting [9]), 0.38 in data set [2] (setting [10]) and 0.54 in data set [2] (setting [11]). Also, in data set [3], the “Solubility Dye(g)/water (100 g)” value is recorded as 12 g of dye/100 g of water. Also, in data set [3], the “Solubility Evaluation” value is “.smallcircle. (solubility is within a range from 10 to 15)”.
